Experiments:
Assay type in all cases: in vivo
[1] = system: ivyleaf morningglory (Ipomoea hederacea, IPOHE); test: Pre-emerge test, greenhouse herbicide activity screening; details: pre-emerge, rated 14 days after application, 0 = no damage, 100 = complete death
How it was run: (§1)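 Compounds in acetone were track-sprayed at 15-1000 g ai/ha (187 l/ha) on sandy loam pots: pre-emerge one day after seeding, post-emerge at 2-3 leaf stage with 0.25% v/v non-ionic surfactant. Phytotoxicity was rated 14 days later on a 0 (no damage) to 100 (complete death) scale.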

[2] = system: barnyardgrass (Echinochloa crus-galli, ECHCG); test: as above; details: pre-emerge, rated 14 days after application, 0 = no damage, 100 = complete death
How it was run: as §1

[3] = system: velvetleaf (Abutilon theophrasti, ABUTH); test: as above; details: pre-emerge, rated 14 days after application, 0 = no damage, 100 = complete death
How it was run: as §1

[4] = system: johnsongrass (Sorghum halepense, SORHA); test: as above; details: pre-emerge, rated 14 days after application, 0 = no damage, 100 = complete death
How it was run: as §1

[5] = system: large crabgrass (Digitaria sanguinalis, DIGSA); test: as above; details: pre-emerge, rated 14 days after application, 0 = no damage, 100 = complete death
How it was run: as §1

[6] = system: sicklepod (Cassia obtusifolia, CASOB); test: as above; details: pre-emerge, rated 14 days after application, 0 = no damage, 100 = complete death
How it was run: as §1

[7] = system: lambsquarters (Chenopodium album, CHEAL); test: as above; details: pre-emerge, rated 14 days after application, 0 = no damage, 100 = complete death
How it was run: as §1

[8] = system: common ragweed (Ambrosia artemisizfolia L., AMBEL); test: as above; details: pre-emerge, rated 14 days after application, 0 = no damage, 100 = complete death
How it was run: as §1

[9] = system: green foxtail (Setaria viridis, SETVI); test: as above; details: pre-emerge, rated 14 days after application, 0 = no damage, 100 = complete death
How it was run: as §1

[10] = system: upland rice (Oryza sp., var. Tebonnet, RICE); test: Post-emerge test, crop safety; details: phytotoxicity rating 0-100 (0 no damage, 100 complete death), 14 days after application
How it was run: as §1

[11] = system: field corn (Zea mays L., var. Dekalb 535, CORN); test: Post-emerge test, crop safety; details: phytotoxicity rating 0-100 (0 no damage, 100 complete death), 14 days after application
How it was run: as §1

[12] = system: upland rice (Oryza sp., var. Tebonnet, RICE); test: Pre-emerge test, crop safety; details: pre-emerge, rated 14 days after application, 0 = no damage, 100 = complete death
How it was run: (§2)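 Rating: 0–100 visual injury, 14 DAA. Application: acetone, 187 l/ha, 15–1000 g ai/ha, flat-fan track sprayer with nozzle 40–45 cm above soil or canopy. Post-emerge runs used 0.25% v/v surfactant on 2–3 leaf plants.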

[13] = system: field corn (Zea mays L., var. Dekalb 535, CORN); test: Pre-emerge test, crop safety; details: pre-emerge, rated 14 days after application, 0 = no damage, 100 = complete death
How it was run: as §2

[14] = system: ivyleaf morningglory (Ipomoea hederacea, IPOHE); test: Post-emerge test, greenhouse herbicide activity screening; details: phytotoxicity rating 0-100 (0 no damage, 100 complete death), 14 days after application
How it was run: (§3)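 Compounds in acetone were track-sprayed at 187 l/ha, 15–1000 g ai/ha, onto sandy loam pots. Pre-emerge seeds were sown one day before spraying, with surface watering afterwards. Post-emerge plants were at the 2–3 leaf stage and sprayed with 0.25% v/v non-ionic surfactant. Injury was rated 0–100 at 14 days.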

[15] = system: barnyardgrass (Echinochloa crus-galli, ECHCG); test: as above; details: phytotoxicity rating 0-100 (0 no damage, 100 complete death), 14 days after application
How it was run: as §3

[16] = system: velvetleaf (Abutilon theophrasti, ABUTH); test: as above; details: phytotoxicity rating 0-100 (0 no damage, 100 complete death), 14 days after application
How it was run: as §3

[17] = system: johnsongrass (Sorghum halepense, SORHA); test: as above; details: phytotoxicity rating 0-100 (0 no damage, 100 complete death), 14 days after application
How it was run: as §3

[18] = system: large crabgrass (Digitaria sanguinalis, DIGSA); test: as above; details: phytotoxicity rating 0-100 (0 no damage, 100 complete death), 14 days after application
How it was run: as §3

[19] = system: sicklepod (Cassia obtusifolia, CASOB); test: as above; details: phytotoxicity rating 0-100 (0 no damage, 100 complete death), 14 days after application
How it was run: as §3

[20] = system: lambsquarters (Chenopodium album, CHEAL); test: as above; details: phytotoxicity rating 0-100 (0 no damage, 100 complete death), 14 days after application
How it was run: as §3

[21] = system: common ragweed (Ambrosia artemisizfolia L., AMBEL); test: as above; details: phytotoxicity rating 0-100 (0 no damage, 100 complete death), 14 days after application
How it was run: as §3

[22] = system: redroot pigweed (Amaranthus retroflexus, AMARE); test: as above; details: phytotoxicity rating 0-100 (0 no damage, 100 complete death), 14 days after application
How it was run: as §3

[23] = system: redroot pigweed (Amaranthus retroflexus, AMARE); test: Pre-emerge test, greenhouse herbicide activity screening; details: pre-emerge, rated 14 days after application, 0 = no damage, 100 = complete death
How it was run: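 Herbicidal damage is scored 0 (none) to 100 (complete plant death) two weeks after a simulated field spray. Rates span 15–1000 g ai/ha, delivered in acetone at 187 l/ha. For post-emergence treatments, plants have 2–3 leaves and the spray carries 0.25% v/v non-ionic surfactant.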

With `COc1c(Cl)cc(F)c(-n2c(=O)cc(C(F)(F)F)n(C)c2=O)c1NC(=O)c1ccc(C(C)(C)C)cc1` [2-30] the “Pre-emerge Herbicidal Activity IPOHE (phytotoxicity rating, scale 0-100)” value ([1]; 63 g ai/ha) was 0, the “Pre-emerge Herbicidal Activity IPOHE (phytotoxicity rating, scale 0-100)” value ([1]; 250 g ai/ha) was 0 and the “Pre-emerge Herbicidal Activity ECHCG (phytotoxicity rating, scale 0-100)” value ([2]; 63 g ai/ha) was 0. For the same compound, the “Pre-emerge Herbicidal Activity ECHCG (phytotoxicity rating, scale 0-100)” value ([2]; 250 g ai/ha) was 0, the “Pre-emerge Herbicidal Activity ABUTH (phytotoxicity rating, scale 0-100)” value ([3]; 63 g ai/ha) was 0 and the “Pre-emerge Herbicidal Activity ABUTH (phytotoxicity rating, scale 0-100)” value ([3]; 250 g ai/ha) was 20. For the same compound, the “Pre-emerge Herbicidal Activity SORHA (phytotoxicity rating, scale 0-100)” value ([4]; 63 g ai/ha) was 0, the “Pre-emerge Herbicidal Activity SORHA (phytotoxicity rating, scale 0-100)” value ([4]; 250 g ai/ha) was 0 and the “Pre-emerge Herbicidal Activity DIGSA (phytotoxicity rating, scale 0-100)” value ([5]; 63 g ai/ha) was 0. For the same compound, the “Pre-emerge Herbicidal Activity DIGSA (phytotoxicity rating, scale 0-100)” value ([5]; 250 g ai/ha) was 0, the “Pre-emerge Herbicidal Activity CASOB (phytotoxicity rating, scale 0-100)” value ([6]; 63 g ai/ha) was 0 and the “Pre-emerge Herbicidal Activity CASOB (phytotoxicity rating, scale 0-100)” value ([6]; 250 g ai/ha) was 0. For the same compound, the “Pre-emerge Herbicidal Activity CHEAL (phytotoxicity rating, scale 0-100)” value ([7]; 63 g ai/ha) was 0, the “Pre-emerge Herbicidal Activity CHEAL (phytotoxicity rating, scale 0-100)” value ([7]; 250 g ai/ha) was 70 and the “Pre-emerge Herbicidal Activity AMBEL (phytotoxicity rating, scale 0-100)” value ([8]; 63 g ai/ha) was 0. The “Pre-emerge Herbicidal Activity AMBEL (phytotoxicity rating, scale 0-100)” value ([8]; 250 g ai/ha) was 0, the “Pre-emerge Herbicidal Activity SETVI (phytotoxicity rating, scale 0-100)” value ([9]; 63 g ai/ha) was 0 and the “Pre-emerge Herbicidal Activity SETVI (phytotoxicity rating, scale 0-100)” value ([9]; 250 g ai/ha) was 20. The “Post-emerge Herbicidal Activity RICE (crop damage)” value ([10]; 63 g ai/ha) was 0, the “Post-emerge Herbicidal Activity RICE (crop damage)” value ([10]; 250 g ai/ha) was 0 and the “Post-emerge Herbicidal Activity CORN (crop damage)” value ([11]; 63 g ai/ha) was 0. For the same compound, the “Post-emerge Herbicidal Activity CORN (crop damage)” value ([11]; 250 g ai/ha) was 0, the “Pre-emerge crop damage RICE (phytotoxicity rating, scale 0-100)” value ([12]; 63 g ai/ha) was 0 and the “Pre-emerge crop damage RICE (phytotoxicity rating, scale 0-100)” value ([12]; 250 g ai/ha) was 0. For the same compound, the “Pre-emerge crop damage CORN (phytotoxicity rating, scale 0-100)” value ([13]; 63 g ai/ha) was 0, the “Pre-emerge crop damage CORN (phytotoxicity rating, scale 0-100)” value ([13]; 250 g ai/ha) was 0 and the “Post-emerge Herbicidal Activity IPOHE” value ([14]; 63 g ai/ha) was 0. For the same compound, the “Post-emerge Herbicidal Activity IPOHE” value ([14]; 250 g ai/ha) was 20, the “Post-emerge Herbicidal Activity ECHCG” value ([15]; 63 g ai/ha) was 0 and the “Post-emerge Herbicidal Activity ECHCG” value ([15]; 250 g ai/ha) was 0. For the same compound, the “Post-emerge Herbicidal Activity ABUTH” value ([16]; 63 g ai/ha) was 30, the “Post-emerge Herbicidal Activity ABUTH” value ([16]; 250 g ai/ha) was 70 and the “Post-emerge Herbicidal Activity SORHA” value ([17]; 63 g ai/ha) was 0. For the same compound, the “Post-emerge Herbicidal Activity SORHA” value ([17]; 250 g ai/ha) was 0, the “Post-emerge Herbicidal Activity DIGSA” value ([18]; 63 g ai/ha) was 0 and the “Post-emerge Herbicidal Activity DIGSA” value ([18]; 250 g ai/ha) was 0. For the same compound, the “Post-emerge Herbicidal Activity CASOB” value ([19]; 63 g ai/ha) was 0, the “Post-emerge Herbicidal Activity CASOB” value ([19]; 250 g ai/ha) was 0 and the “Post-emerge Herbicidal Activity CHEAL” value ([20]; 63 g ai/ha) was 0. The “Post-emerge Herbicidal Activity CHEAL” value ([20]; 250 g ai/ha) was 50, the “Post-emerge Herbicidal Activity AMBEL” value ([21]; 63 g ai/ha) was 0 and the “Post-emerge Herbicidal Activity AMBEL” value ([21]; 250 g ai/ha) was 10. The “Post-emerge Herbicidal Activity AMARE” value ([22]; 63 g ai/ha) was 0, the “Post-emerge Herbicidal Activity AMARE” value ([22]; 250 g ai/ha) was 20 and the “Pre-emerge Herbicidal Activity AMARE (phytotoxicity rating, scale 0-100)” value ([23]; 63 g ai/ha) was 0. For the same compound, the “Pre-emerge Herbicidal Activity AMARE (phytotoxicity rating, scale 0-100)” value ([23]; 250 g ai/ha) was 0.

Source: US6355799B1, “Substituted benzene compounds, process for their preparation, and herbicidal and defoliant compositions containing them” (ISK Americas Incorporated, priority 1997, dated 2002)
